Data taken from patent US9334246B2, “Substituted triazines for malaria treatment and chemoprophylaxis” (The United States of America, as represented by the …, priority 2013, dated 2016).

What was measured:
Format in all cases: cell-based, Plasmodium falciparum
Details in all cases: SYBR Green Assay
[1] = system: P. falciparum D6; experiment: Malaria SYBR Green Fluorescence Assay, D6 strain
[2] = system: P. falciparum C235; experiment: Malaria SYBR Green Fluorescence Assay, C235 strain
[3] = system: P. falciparum W2; experiment: Malaria SYBR Green Fluorescence Assay, W2 strain

Row | SMILES | D6 [1] [ng/mL] | C235 [2] [ng/mL] | W2 [3] [ng/mL]
1 | CS(=O)(=O)c1ccc(-c2nc(N3CCCN(CCO)CC3)nc(C(Cl)(Cl)Cl)n2)cc1 [Cmpd 132] | 64 | 200 | 103
2 | Clc1ccc(-c2nc(NCCc3ccncc3)nc(C(Cl)(Cl)Cl)n2)cc1 [Cmpd 139] | 202 | 320 | 81
3 | Clc1ccc(-c2nc(NCc3ccccn3)nc(C(Cl)(Cl)Cl)n2)cc1 [Cmpd 141] | 556 | 652 | 237
4 | Clc1ccc(-c2nc(NCc3cccnc3)nc(C(Cl)(Cl)Cl)n2)cc1 [Cmpd 142] | 306 | 469 | 112
5 | Cc1ccc(-c2nc(NCCc3ccncc3)nc(C(Cl)(Cl)Cl)n2)cc1 [Cmpd 145] | 168 | 344 | 94
6 | COc1ccccc1-c1nc(NCCc2ccncc2)nc(C(Cl)(Cl)Cl)n1 [Cmpd 146] | 539 | 804 | 246
7 | COc1ccc(-c2nc(NCCc3ccncc3)nc(C(Cl)(Cl)Cl)n2)cc1 [Cmpd 147] | 155 | 233 | 77
8 | CC(C)(C)c1ccc(-c2nc(NCCc3ccncc3)nc(C(Cl)(Cl)Cl)n2)cc1 [Cmpd 148] | 621 | 671 | 151
9 | COc1cccc(-c2nc(NCCc3ccncc3)nc(C(Cl)(Cl)Cl)n2)c1 [Cmpd 151] | 346 | 549 | 133
10 | COc1cccc(-c2nc(NCc3cccnc3)nc(C(Cl)(Cl)Cl)n2)c1 [Cmpd 155] | 318 | 614 | 145
11 | CC(C)(C)c1ccc(-c2nc(NCc3cccnc3)nc(C(Cl)(Cl)Cl)n2)cc1 [Cmpd 158] | 260 | 324 | 92
12 | CSc1ccc(-c2nc(NCc3cccnc3)nc(C(Cl)(Cl)Cl)n2)cc1 [Cmpd 160] | 789 | 896 | 238
13 | COc1ccc(-c2nc(NCc3ccccn3)nc(C(Cl)(Cl)Cl)n2)cc1 [Cmpd 168] | 755 | 898 | 338
14 | Cc1ccc(-c2nc(NCCc3cccnc3)nc(C(Cl)(Cl)Cl)n2)cc1 [Cmpd 172] | 209 | 346 | 106
15 | COc1ccc(-c2nc(NCCc3cccnc3)nc(C(Cl)(Cl)Cl)n2)cc1 [Cmpd 174] | 430 | 641 | 181
16 | CC(C)(C)c1ccc(-c2nc(NCCc3cccnc3)nc(C(Cl)(Cl)Cl)n2)cc1 [Cmpd 175] | 110 | 165 | 54
17 | CS(=O)(=O)c1ccc(-c2nc(NCc3ccccn3)nc(C(Cl)(Cl)Cl)n2)cc1 [Cmpd 177] | 355 | 565 | 186
18 | CS(=O)(=O)c1ccc(-c2nc(NCCc3ccncc3)nc(C(Cl)(Cl)Cl)n2)cc1 [Cmpd 178] | 392 | 518 | 162
19 | CS(=O)(=O)c1ccc(-c2nc(NCCc3cccnc3)nc(C(Cl)(Cl)Cl)n2)cc1 [Cmpd 179] | 471 | 680 | 201
20 | COc1ccc(-c2nc(NCCc3ccccn3)nc(C(Cl)(Cl)Cl)n2)cc1 [Cmpd 185] | 185 | 244 | 63
21 | FC(F)(F)c1cccc(-c2nc(NCCc3ccccn3)nc(C(Cl)(Cl)Cl)n2)c1 [Cmpd 186] | 494 | 499 | 115
22 | ClC(Cl)(Cl)c1nc(NCCc2ccccn2)nc(-c2ccccc2)n1 [Cmpd 188] | 176 | 197 | 42
23 | ClC(Cl)(Cl)c1nc(NCCCN2CCCC2)nc(-c2ccc(-c3ccccc3)cc2)n1 [Cmpd 197] | 128 | 137 | 105
24 | ClC(Cl)(Cl)c1nc(-c2ccc(-c3ccccc3)cc2)nc(N2CCCNCC2)n1 [Cmpd 198] | 64 | 70 | 40
25 | Clc1cc(Cl)cc(-c2nc(N3CCCNCC3)nc(C(Cl)(Cl)Cl)n2)c1 [Cmpd 204] | 231 | 214 | 78
26 | Clc1cc(Cl)cc(-c2nc(NCc3cccnc3)nc(C(Cl)(Cl)Cl)n2)c1 [Cmpd 209] | 122 | 112 | 67
27 | Clc1cc(Cl)cc(-c2nc(NCc3ccccn3)nc(C(Cl)(Cl)Cl)n2)c1 [Cmpd 210] | 112 | 78 | 72

Row | SMILES | D6 [1] [ng/mL] | C235 [2] [ng/mL] | W2 [3] [ng/mL]
28 | CCN1CCCC(Nc2nc(-c3ccccc3OC)nc(C(Cl)(Cl)Cl)n2)C1 (stereo not drawn) [Cmpd 215] | 426 | 248 | 132
29 | COc1ccccc1-c1nc(N2CCCNCC2)nc(C(Cl)(Cl)Cl)n1 [Cmpd 218] | 104 | 73 | 38
30 | ClC(Cl)(Cl)c1nc(NCCc2ccncc2)nc(-c2ccc3ccccc3c2)n1 [Cmpd 230] | 246 | 212 | 59
31 | COc1cccc(-c2nc(NCCC3CCCN3C)nc(C(Cl)(Cl)Cl)n2)c1 (stereo not drawn) [Cmpd 236] | 52 | 60 | 50
32 | CN1CCN(c2nc(-c3ccccc3)nc(C(Cl)(Cl)Cl)n2)CC1 [Cmpd 239] | 192 | 158 | 125
33 | CCN(CC)CCNc1nc(Cc2cccc(OC)c2)nc(C(Cl)(Cl)Cl)n1 [Cmpd 243] | 199 | 128 | 123
34 | CC(C)(C)c1ccc(-c2nc(NCCN3CCCC3)nc(C(Cl)(Cl)Cl)n2)cc1 [Cmpd 246] | 48 | 35 | 59
35 | CCN(CC)CCNc1nc(-c2ccccc2-c2ccc(C)cc2)nc(C(Cl)(Cl)Cl)n1 [Cmpd 254] | 632 | 462 | 492
36 | CCN1CCC(CNc2nc(-c3ccc(Cl)c(Cl)c3)nc(C(Cl)(Cl)Cl)n2)CC1 [Cmpd 257] | 54 | 29 | 45
37 | CCN1CCC(CNc2nc(-c3cccc(OC)c3)nc(C(Cl)(Cl)Cl)n2)CC1 [Cmpd 258] | 50 | 26 | 29
38 | CCN1CCC(CNc2nc(-c3ccccc3-c3ccc(C)cc3)nc(C(Cl)(Cl)Cl)n2)CC1 [Cmpd 259] | 162 | 113 | 105
39 | CCN1CCC(CNc2nc(-c3ccc(C)cc3)nc(C(Cl)(Cl)Cl)n2)CC1 [Cmpd 265] | 803 | 672 | 714
40 | Cc1ccc(-c2ccccc2-c2nc(NCCN3CCCC3)nc(C(Cl)(Cl)Cl)n2)cc1 [Cmpd 266] | 654 | 530 | 474
41 | CCN(CC)CCNc1nc(-c2ccc(OC)cc2)nc(C(Cl)(Cl)Cl)n1 [Cmpd 268] | 309 | 282 | 259
42 | COc1cccc(Cc2nc(N3CCCN(C)CC3)nc(C(Cl)(Cl)Cl)n2)c1 [Cmpd 269] | 835 | 627 | 286
43 | CSc1ccc(-c2nc(NC(C)(C)CN)nc(C(Cl)(Cl)Cl)n2)cc1 [Cmpd 277] | 406 | 312 | 364
44 | COc1ccc(-c2nc(NCCN3CCCC3)nc(C(Cl)(Cl)Cl)n2)c2ccccc12 [Cmpd 278] | 35 | 48 | 17
45 | CCN1CCC(CNc2nc(-c3ccc(OC)c4ccccc34)nc(C(Cl)(Cl)Cl)n2)CC1 [Cmpd 279] | 66 | 77 | 20
46 | CCN1CCCC(Nc2nc(-c3ccc(OC)c4ccccc34)nc(C(Cl)(Cl)Cl)n2)C1 (stereo not drawn) [Cmpd 280] | 138 | 193 | 76
47 | COc1ccc(-c2nc(N3CCCNCC3)nc(C(Cl)(Cl)Cl)n2)c2ccccc12 [Cmpd 281] | 148 | 205 | 66
48 | CC(C)(N)CNc1nc(-c2ccc(Cl)cc2)nc(C(Cl)(Cl)Cl)n1 [Cmpd 284] | 12 | 18 | 3
49 | CCN(CC)CCNc1nc(-c2ccc(Cl)cc2)nc(C(Cl)(Cl)Cl)n1 [Cmpd 286] | 5 | 10 | 2
50 | CN1CCCN(c2nc(-c3ccc(Cl)cc3)nc(C(Cl)(Cl)Cl)n2)CC1 [Cmpd 287] | 143 | 232 | 60
51 | COc1ccccc1Cc1nc(NCC(C)(C)N)nc(C(Cl)(Cl)Cl)n1 [Cmpd 292] | 77 | 103 | 34
52 | CCN1CCC(CNc2nc(Cc3ccccc3OC)nc(C(Cl)(Cl)Cl)n2)CC1 [Cmpd 293] | 48 | 70 | 13
53 | CN1CCCC1CCNc1nc(Nc2ccc(OC(F)(F)F)cc2)nc(C(Cl)(Cl)Cl)n1 (stereo not drawn) [Cmpd 295] | 10 | 23 | 10
54 | CC(C)(N)CNc1nc(Nc2ccc(OC(F)(F)F)cc2)nc(C(Cl)(Cl)Cl)n1 [Cmpd 296] | 302 | 460 | 318
